system: Blood; assay: Inhibition of TNFalpha release in human whole blood; format: functional, tissue-based; details: not given

SMILES | IC50
CSc1nc(-c2ccc(F)cc2)c(-c2ccnc(NCCc3cccs3)c2)[nH]1 | 14.5 µM
CSc1nc(-c2ccc(F)cc2)c(-c2ccnc(NC(C)C(C)C)c2)[nH]1 (stereo not drawn) | 0.167 µM
CSc1nc(-c2ccc(F)cc2)c(-c2ccnc(NCC(C)O)c2)[nH]1 (stereo not drawn) | 0.416 µM
COCCn1c(SC)nc(-c2ccc(F)cc2)c1-c1ccnc(N[C@H](C)c2ccccc2)c1 | 9.86 µM
CSc1nc(-c2ccc(F)cc2)c(-c2ccnc(NCc3ccco3)c2)[nH]1 | 5.52 µM

system: Blood; assay: Inhibition of IL1-beta release in human whole blood; format: functional, tissue-based; details: not given

SMILES | IC50
CSc1nc(-c2ccc(F)cc2)c(-c2ccnc(NCCc3cccs3)c2)[nH]1 | 23.5 µM
CSc1nc(-c2ccc(F)cc2)c(-c2ccnc(NC(C)C(C)C)c2)[nH]1 (stereo not drawn) | 0.63 µM
CSc1nc(-c2ccc(F)cc2)c(-c2ccnc(NCC(C)O)c2)[nH]1 (stereo not drawn) | 1.89 µM

species: Homo sapiens; assay: Inhibition of human CAMK2 at 10 uM; details: not given

SMILES | inhibition
CSc1nc(-c2ccc(F)cc2)c(-c2ccnc(NCCc3cccs3)c2)[nH]1 | 0%

molecular target: RAF proto-oncogene serine/threonine-protein kinase (Homo sapiens) (UniProt P04049); assay: Inhibition of human c-RAF at 10 uM; details: not given
Sequence (P04049 whole entry): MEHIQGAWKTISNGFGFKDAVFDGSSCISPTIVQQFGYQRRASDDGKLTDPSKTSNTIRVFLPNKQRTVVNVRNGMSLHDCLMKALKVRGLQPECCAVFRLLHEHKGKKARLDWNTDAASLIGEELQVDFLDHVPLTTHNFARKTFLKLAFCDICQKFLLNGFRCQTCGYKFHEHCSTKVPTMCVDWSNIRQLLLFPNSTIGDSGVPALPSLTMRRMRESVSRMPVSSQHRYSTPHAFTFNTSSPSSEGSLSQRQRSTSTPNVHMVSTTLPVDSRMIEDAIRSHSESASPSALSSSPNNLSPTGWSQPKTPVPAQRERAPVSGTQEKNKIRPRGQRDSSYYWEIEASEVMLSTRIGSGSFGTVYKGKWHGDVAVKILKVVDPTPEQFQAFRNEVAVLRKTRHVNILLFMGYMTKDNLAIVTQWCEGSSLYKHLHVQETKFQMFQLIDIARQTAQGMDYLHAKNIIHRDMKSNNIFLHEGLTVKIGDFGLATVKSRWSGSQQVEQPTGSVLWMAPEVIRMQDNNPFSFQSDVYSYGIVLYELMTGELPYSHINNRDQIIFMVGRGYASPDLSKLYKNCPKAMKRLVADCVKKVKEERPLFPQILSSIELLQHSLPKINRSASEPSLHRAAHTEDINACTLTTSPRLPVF

SMILES | inhibition
CSc1nc(-c2ccc(F)cc2)c(-c2ccnc(NCCc3cccs3)c2)[nH]1 | 53%

molecular target: Mitogen-activated protein kinase 3 (Homo sapiens) (UniProt P27361); assay: Inhibition of human ERK1 at 10 uM; details: not given
Sequence (P27361 whole entry): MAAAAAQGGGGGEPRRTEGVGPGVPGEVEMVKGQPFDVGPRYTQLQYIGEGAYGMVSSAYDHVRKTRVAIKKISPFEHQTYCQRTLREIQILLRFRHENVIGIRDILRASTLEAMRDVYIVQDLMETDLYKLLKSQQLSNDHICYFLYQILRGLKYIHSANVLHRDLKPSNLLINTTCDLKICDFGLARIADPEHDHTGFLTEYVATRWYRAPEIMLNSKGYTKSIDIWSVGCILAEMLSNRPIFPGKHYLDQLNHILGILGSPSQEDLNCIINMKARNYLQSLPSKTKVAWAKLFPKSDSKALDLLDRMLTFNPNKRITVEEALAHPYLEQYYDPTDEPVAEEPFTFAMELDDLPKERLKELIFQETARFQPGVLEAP

SMILES | inhibition
CSc1nc(-c2ccc(F)cc2)c(-c2ccnc(NCCc3cccs3)c2)[nH]1 | 46%

species: Homo sapiens; assay: Inhibition of human JNK1-alpha-1/SAPK1c at 10 uM; details: not given

SMILES | inhibition
CSc1nc(-c2ccc(F)cc2)c(-c2ccnc(NCCc3cccs3)c2)[nH]1 | 72%

molecular target: Dual specificity mitogen-activated protein kinase kinase 1 (Homo sapiens) (UniProt Q02750); assay: Inhibition of human MEK1 at 10 uM; details: not given

SMILES | inhibition
CSc1nc(-c2ccc(F)cc2)c(-c2ccnc(NCCc3cccs3)c2)[nH]1 | 1%

molecular target: Mitogen-activated protein kinase 9 (Homo sapiens) (UniProt P45984); assay: Inhibition of human JNK2alpha2 at 10 uM; details: not given
Sequence (P45984 whole entry, looked up): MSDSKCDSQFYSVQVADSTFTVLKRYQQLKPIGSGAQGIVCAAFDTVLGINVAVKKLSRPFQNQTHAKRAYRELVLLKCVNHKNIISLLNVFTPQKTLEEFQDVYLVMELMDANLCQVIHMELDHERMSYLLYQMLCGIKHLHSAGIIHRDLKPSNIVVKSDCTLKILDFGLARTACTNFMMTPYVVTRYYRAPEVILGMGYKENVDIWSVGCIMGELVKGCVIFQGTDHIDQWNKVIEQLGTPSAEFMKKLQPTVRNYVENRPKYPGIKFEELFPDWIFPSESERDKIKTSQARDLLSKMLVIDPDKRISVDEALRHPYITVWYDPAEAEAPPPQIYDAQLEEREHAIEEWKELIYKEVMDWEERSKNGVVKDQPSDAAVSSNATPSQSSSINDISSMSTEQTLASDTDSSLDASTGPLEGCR

SMILES | inhibition
CSc1nc(-c2ccc(F)cc2)c(-c2ccnc(NCCc3cccs3)c2)[nH]1 | 90%

molecular target: Mitogen-activated protein kinase 10 (Homo sapiens) (UniProt P53779); assay: Inhibition of human JNK3 at 10 uM; details: not given

SMILES | inhibition
CSc1nc(-c2ccc(F)cc2)c(-c2ccnc(NCCc3cccs3)c2)[nH]1 | 99%

species: Homo sapiens; assay: Inhibition of human PKA at 10 uM; details: not given

SMILES | inhibition
CSc1nc(-c2ccc(F)cc2)c(-c2ccnc(NCCc3cccs3)c2)[nH]1 | 4%

molecular target: Protein kinase C alpha type (Homo sapiens) (UniProt P17252); assay: Inhibition of human PKCalpha at 10 uM; details: not given

SMILES | inhibition
CSc1nc(-c2ccc(F)cc2)c(-c2ccnc(NCCc3cccs3)c2)[nH]1 | 0%

molecular target: RAC-alpha serine/threonine-protein kinase (Homo sapiens) (UniProt P31749); assay: Inhibition of human PKBalpha at 10 uM; details: not given
Sequence (P31749 whole entry): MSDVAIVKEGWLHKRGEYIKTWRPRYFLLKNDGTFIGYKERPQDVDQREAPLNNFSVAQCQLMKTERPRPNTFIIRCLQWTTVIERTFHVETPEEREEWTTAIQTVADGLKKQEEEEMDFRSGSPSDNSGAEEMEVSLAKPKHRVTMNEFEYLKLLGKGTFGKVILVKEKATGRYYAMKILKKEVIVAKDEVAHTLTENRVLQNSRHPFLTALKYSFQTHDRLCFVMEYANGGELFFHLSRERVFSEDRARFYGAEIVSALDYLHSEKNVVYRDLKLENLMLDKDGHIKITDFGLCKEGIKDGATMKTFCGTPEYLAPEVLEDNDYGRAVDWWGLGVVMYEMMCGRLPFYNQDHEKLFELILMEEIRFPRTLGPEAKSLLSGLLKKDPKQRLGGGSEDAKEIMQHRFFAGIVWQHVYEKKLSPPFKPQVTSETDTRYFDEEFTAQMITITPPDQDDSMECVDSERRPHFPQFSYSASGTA

SMILES | inhibition
CSc1nc(-c2ccc(F)cc2)c(-c2ccnc(NCCc3cccs3)c2)[nH]1 | 1%

molecular target: Glycogen synthase kinase-3 beta (Homo sapiens) (UniProt P49841); assay: Inhibition of human GSK3-beta at 10 uM; details: not given
Sequence (P49841 whole entry, looked up): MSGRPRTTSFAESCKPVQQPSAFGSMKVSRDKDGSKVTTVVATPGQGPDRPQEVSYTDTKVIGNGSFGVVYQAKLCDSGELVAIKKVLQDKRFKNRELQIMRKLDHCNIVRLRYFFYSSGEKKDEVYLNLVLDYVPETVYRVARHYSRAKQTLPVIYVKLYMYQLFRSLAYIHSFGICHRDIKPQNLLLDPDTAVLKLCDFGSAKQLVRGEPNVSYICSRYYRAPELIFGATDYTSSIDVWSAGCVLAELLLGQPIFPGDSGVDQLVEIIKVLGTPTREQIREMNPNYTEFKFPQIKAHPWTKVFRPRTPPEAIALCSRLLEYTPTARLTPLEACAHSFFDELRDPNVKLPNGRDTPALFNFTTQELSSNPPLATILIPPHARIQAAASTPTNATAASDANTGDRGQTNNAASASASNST

SMILES | inhibition
CSc1nc(-c2ccc(F)cc2)c(-c2ccnc(NCCc3cccs3)c2)[nH]1 | 1%

molecular target: Rho-associated protein kinase 2 (Homo sapiens) (UniProt O75116); assay: Inhibition of human ROCK2 at 10 uM; details: not given

SMILES | inhibition
CSc1nc(-c2ccc(F)cc2)c(-c2ccnc(NCCc3cccs3)c2)[nH]1 | 0%

molecular target: Tyrosine-protein kinase Lck (Homo sapiens) (UniProt P06239); assay: Inhibition of human LCK at 10 uM; details: not given

SMILES | inhibition
CSc1nc(-c2ccc(F)cc2)c(-c2ccnc(NCCc3cccs3)c2)[nH]1 | 28%

molecular target: T1, CYP1A2 (Homo sapiens, UniProt P05177); assay: Inhibition of CYP1A2 at 10 uM; format: ADME; details: not given
T1 sequence (P05177 whole entry): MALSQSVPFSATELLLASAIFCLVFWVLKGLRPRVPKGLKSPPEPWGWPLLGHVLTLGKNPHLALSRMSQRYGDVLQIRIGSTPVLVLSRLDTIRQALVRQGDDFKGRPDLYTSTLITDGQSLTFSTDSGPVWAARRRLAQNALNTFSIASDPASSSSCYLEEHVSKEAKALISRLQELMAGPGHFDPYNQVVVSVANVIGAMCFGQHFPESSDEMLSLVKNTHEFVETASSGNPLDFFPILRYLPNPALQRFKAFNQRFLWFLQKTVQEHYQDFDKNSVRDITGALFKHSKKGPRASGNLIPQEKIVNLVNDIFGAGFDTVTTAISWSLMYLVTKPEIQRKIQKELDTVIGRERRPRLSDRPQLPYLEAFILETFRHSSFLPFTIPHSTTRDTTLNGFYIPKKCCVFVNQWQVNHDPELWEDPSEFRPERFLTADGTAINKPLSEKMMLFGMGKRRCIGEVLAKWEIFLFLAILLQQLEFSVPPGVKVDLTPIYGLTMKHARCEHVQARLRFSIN

SMILES | inhibition at 10 µM
CSc1nc(-c2ccc(F)cc2)c(-c2ccnc(NCCc3cccs3)c2)[nH]1 | 83%
CSc1nc(-c2ccc(F)cc2)c(-c2ccnc(NC(C)C(C)C)c2)[nH]1 (stereo not drawn) | 45%
CSc1nc(-c2ccc(F)cc2)c(-c2ccnc(NCC(C)O)c2)[nH]1 (stereo not drawn) | 29%
COCCn1c(SC)nc(-c2ccc(F)cc2)c1-c1ccnc(N[C@H](C)c2ccccc2)c1 | 25%
CSc1nc(-c2ccc(F)cc2)c(-c2ccnc(NCc3ccco3)c2)[nH]1 | 76%

molecular target: CYP2C9 (Homo sapiens, UniProt P11712); assay: Inhibition of CYP2C9 at 10 uM; format: ADME; details: not given
Sequence (P11712 whole entry): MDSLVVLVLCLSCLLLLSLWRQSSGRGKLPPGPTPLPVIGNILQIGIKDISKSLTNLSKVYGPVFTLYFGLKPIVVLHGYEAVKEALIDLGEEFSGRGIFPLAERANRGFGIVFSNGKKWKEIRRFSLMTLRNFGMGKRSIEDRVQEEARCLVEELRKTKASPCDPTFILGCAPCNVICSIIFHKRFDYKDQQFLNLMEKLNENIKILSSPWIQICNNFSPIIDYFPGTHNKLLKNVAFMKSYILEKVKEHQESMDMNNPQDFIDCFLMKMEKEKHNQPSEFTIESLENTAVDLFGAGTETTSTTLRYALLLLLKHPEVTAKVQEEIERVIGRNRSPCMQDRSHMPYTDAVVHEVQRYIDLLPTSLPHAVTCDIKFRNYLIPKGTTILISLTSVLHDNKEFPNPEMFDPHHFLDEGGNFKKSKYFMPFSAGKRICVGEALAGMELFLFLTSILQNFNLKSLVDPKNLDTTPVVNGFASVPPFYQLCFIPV

SMILES | inhibition at 10 µM
CSc1nc(-c2ccc(F)cc2)c(-c2ccnc(NCCc3cccs3)c2)[nH]1 | 93%
CSc1nc(-c2ccc(F)cc2)c(-c2ccnc(NC(C)C(C)C)c2)[nH]1 (stereo not drawn) | 75%
CSc1nc(-c2ccc(F)cc2)c(-c2ccnc(NCC(C)O)c2)[nH]1 (stereo not drawn) | 39%
COCCn1c(SC)nc(-c2ccc(F)cc2)c1-c1ccnc(N[C@H](C)c2ccccc2)c1 | 71%
CSc1nc(-c2ccc(F)cc2)c(-c2ccnc(NCc3ccco3)c2)[nH]1 | 71%

molecular target: CYP2C19 (Homo sapiens, UniProt P33261); assay: Inhibition of CYP2C19 at 10 uM; format: ADME; details: not given
Sequence (P33261 whole entry): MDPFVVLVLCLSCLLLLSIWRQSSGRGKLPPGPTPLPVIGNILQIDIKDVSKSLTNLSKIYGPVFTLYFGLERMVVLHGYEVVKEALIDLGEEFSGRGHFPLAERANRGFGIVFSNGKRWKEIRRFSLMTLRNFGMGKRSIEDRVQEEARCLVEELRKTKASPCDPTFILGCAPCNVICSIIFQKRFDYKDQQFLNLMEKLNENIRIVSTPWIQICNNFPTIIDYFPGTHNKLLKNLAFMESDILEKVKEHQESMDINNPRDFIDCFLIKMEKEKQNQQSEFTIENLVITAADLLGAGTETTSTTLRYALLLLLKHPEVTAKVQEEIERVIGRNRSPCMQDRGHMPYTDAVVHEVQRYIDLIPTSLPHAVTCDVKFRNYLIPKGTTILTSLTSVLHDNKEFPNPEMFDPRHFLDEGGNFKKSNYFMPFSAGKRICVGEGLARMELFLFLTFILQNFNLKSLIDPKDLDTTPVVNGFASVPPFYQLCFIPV

SMILES | inhibition at 10 µM
CSc1nc(-c2ccc(F)cc2)c(-c2ccnc(NCCc3cccs3)c2)[nH]1 | 94%
CSc1nc(-c2ccc(F)cc2)c(-c2ccnc(NC(C)C(C)C)c2)[nH]1 (stereo not drawn) | 76%
CSc1nc(-c2ccc(F)cc2)c(-c2ccnc(NCC(C)O)c2)[nH]1 (stereo not drawn) | 25%
COCCn1c(SC)nc(-c2ccc(F)cc2)c1-c1ccnc(N[C@H](C)c2ccccc2)c1 | 83%
CSc1nc(-c2ccc(F)cc2)c(-c2ccnc(NCc3ccco3)c2)[nH]1 | 63%

molecular target: CYP2D6 (Homo sapiens, UniProt P10635); assay: Inhibition of CYP2D6 at 10 uM; format: ADME; details: not given
Sequence (P10635 whole entry): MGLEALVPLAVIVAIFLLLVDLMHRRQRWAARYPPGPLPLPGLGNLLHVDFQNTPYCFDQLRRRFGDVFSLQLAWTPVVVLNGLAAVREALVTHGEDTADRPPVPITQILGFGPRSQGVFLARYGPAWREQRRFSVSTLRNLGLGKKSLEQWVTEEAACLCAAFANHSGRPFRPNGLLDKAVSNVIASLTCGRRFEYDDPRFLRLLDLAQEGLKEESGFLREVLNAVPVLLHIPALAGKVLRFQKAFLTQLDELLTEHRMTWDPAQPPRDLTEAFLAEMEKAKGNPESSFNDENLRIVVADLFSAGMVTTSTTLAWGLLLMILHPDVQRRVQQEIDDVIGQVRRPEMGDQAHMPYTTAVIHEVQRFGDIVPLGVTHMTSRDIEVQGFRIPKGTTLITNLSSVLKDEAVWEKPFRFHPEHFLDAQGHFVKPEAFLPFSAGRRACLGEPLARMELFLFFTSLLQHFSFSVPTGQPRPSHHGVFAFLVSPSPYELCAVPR

SMILES | inhibition at 10 µM
CSc1nc(-c2ccc(F)cc2)c(-c2ccnc(NCCc3cccs3)c2)[nH]1 | 88%
CSc1nc(-c2ccc(F)cc2)c(-c2ccnc(NC(C)C(C)C)c2)[nH]1 (stereo not drawn) | 53%
CSc1nc(-c2ccc(F)cc2)c(-c2ccnc(NCC(C)O)c2)[nH]1 (stereo not drawn) | 5%
COCCn1c(SC)nc(-c2ccc(F)cc2)c1-c1ccnc(N[C@H](C)c2ccccc2)c1 | 64%
CSc1nc(-c2ccc(F)cc2)c(-c2ccnc(NCc3ccco3)c2)[nH]1 | 66%

molecular target: CYP3A4 (Homo sapiens, UniProt P08684); assay: Inhibition of CYP3A4 at 10 uM; format: ADME; details: not given
Sequence (P08684 whole entry): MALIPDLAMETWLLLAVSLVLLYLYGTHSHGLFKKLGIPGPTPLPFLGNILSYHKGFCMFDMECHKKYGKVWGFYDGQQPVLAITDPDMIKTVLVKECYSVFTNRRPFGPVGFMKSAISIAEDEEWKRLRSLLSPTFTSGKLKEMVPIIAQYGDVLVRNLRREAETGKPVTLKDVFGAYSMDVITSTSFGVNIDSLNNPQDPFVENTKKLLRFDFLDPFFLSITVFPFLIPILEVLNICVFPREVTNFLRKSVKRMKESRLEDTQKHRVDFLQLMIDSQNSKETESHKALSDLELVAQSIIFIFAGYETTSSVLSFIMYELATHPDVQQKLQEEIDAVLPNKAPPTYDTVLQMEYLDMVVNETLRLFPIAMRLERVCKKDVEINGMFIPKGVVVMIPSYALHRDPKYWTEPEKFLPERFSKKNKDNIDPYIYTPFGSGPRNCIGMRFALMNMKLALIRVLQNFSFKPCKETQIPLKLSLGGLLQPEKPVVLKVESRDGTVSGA

SMILES | inhibition at 10 µM
CSc1nc(-c2ccc(F)cc2)c(-c2ccnc(NCCc3cccs3)c2)[nH]1 | 89%
CSc1nc(-c2ccc(F)cc2)c(-c2ccnc(NC(C)C(C)C)c2)[nH]1 (stereo not drawn) | 59%
CSc1nc(-c2ccc(F)cc2)c(-c2ccnc(NCC(C)O)c2)[nH]1 (stereo not drawn) | 33%
COCCn1c(SC)nc(-c2ccc(F)cc2)c1-c1ccnc(N[C@H](C)c2ccccc2)c1 | 87%
CSc1nc(-c2ccc(F)cc2)c(-c2ccnc(NCc3ccco3)c2)[nH]1 | 81%

molecular target: T2, Mitogen-activated protein kinase 14 (Homo sapiens, UniProt Q16539); assay: Inhibition of p38alpha; details: not given
T2 sequence (Q16539 whole entry): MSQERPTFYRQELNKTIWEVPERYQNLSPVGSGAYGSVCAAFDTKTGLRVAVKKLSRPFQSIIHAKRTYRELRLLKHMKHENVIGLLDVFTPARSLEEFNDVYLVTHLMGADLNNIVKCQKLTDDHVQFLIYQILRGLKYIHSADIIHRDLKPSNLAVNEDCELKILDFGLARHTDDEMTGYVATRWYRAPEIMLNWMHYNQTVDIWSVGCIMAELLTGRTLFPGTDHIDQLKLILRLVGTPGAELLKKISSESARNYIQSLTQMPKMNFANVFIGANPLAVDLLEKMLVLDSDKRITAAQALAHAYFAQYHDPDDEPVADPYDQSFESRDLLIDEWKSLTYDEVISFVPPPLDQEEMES

SMILES | IC50
CSc1nc(-c2ccc(F)cc2)c(-c2ccnc(NCCc3cccs3)c2)[nH]1 | 0.023 µM
CSc1nc(-c2ccc(F)cc2)c(-c2ccnc(NC(C)C(C)C)c2)[nH]1 (stereo not drawn) | 0.011 µM
CSc1nc(-c2ccc(F)cc2)c(-c2ccnc(NCC(C)O)c2)[nH]1 (stereo not drawn) | 0.021 µM
COCCn1c(SC)nc(-c2ccc(F)cc2)c1-c1ccnc(N[C@H](C)c2ccccc2)c1 | 0.61 µM
CSc1nc(-c2ccc(F)cc2)c(-c2ccnc(NCc3ccco3)c2)[nH]1 | 0.06 µM

molecular target: T2, Mitogen-activated protein kinase 14; assay: not given; details: at 10 µM

SMILES | inhibition
CSc1nc(-c2ccc(F)cc2)c(-c2ccnc(NCCc3cccs3)c2)[nH]1 | 99%

molecular target: Mitogen-activated protein kinase 1 (Homo sapiens) (UniProt P28482); assay: Inhibition of human MAPK2/ERK2 at 10 uM; details: not given

SMILES | inhibition
CSc1nc(-c2ccc(F)cc2)c(-c2ccnc(NCCc3cccs3)c2)[nH]1 | 31%

From ChEMBL document CHEMBL1155084 (J Med Chem, 2008)
